According to paper PMC2857062 (The Journal of biological chemistry, 2010):

Key:
[1] = biological target: Dock1 DHR-1 domain (422-619) (Homo sapiens, UniProt Q14185, D436Y); test: ITC; format: binding
[2] = biological target: Dock1 DHR-1 domain (422-619) (Homo sapiens, UniProt Q14185); test: ITC; format: binding
Sequence of Dock1 DHR-1 domain (422-619) (Homo sapiens, UniProt Q14185) (Q14185 422-619): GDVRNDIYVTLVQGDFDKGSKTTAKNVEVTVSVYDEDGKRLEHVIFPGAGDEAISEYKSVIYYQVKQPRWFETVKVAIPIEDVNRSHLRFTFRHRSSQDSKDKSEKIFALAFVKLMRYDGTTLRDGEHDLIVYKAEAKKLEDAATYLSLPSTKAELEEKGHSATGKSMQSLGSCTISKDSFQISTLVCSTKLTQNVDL

Sequence of Dock1 DHR-1 domain (422-619) (Homo sapiens, UniProt Q14185, D436Y) (Q14185 422-619 D436Y): as the sequence (Q14185 422-619) above, with D15Y counted along it

Kd [1] | Kd [2] | Compound
3.4 µM | – | CCCCCCCC(=O)OC[C@H](COP(=O)(O)O[C@H]1[C@H](O)[C@@H](OP(=O)(O)O)[C@H](OP(=O)(O)O)[C@@H](OP(=O)(O)O)[C@H]1O)OC(=O)CCCCCCC [di-C8-PtdIns(3,4,5)P3]
– | 7.7 ± 3 µM | O=P(O)(O)O[C@H]1[C@H](O)[C@@H](OP(=O)(O)O)[C@H](OP(=O)(O)O)[C@@H](OP(=O)(O)O)[C@H]1O [Ins(1,3,4,5)P4]
